Columns and labels:
[1] = biological target: Tyrosine-protein kinase Lck (Homo sapiens, UniProt P06239); experiment: DRUGMATRIX: Protein Tyrosine Kinase, LCK enzyme inhibition (substrate: Poly(Glu:Tyr)); type: cell-based, Insect cells; settings: insect cells; Not Active = under 50% inhibition at 10 µM
[2] = biological target: T1, Alpha-2A adrenergic receptor (Homo sapiens, UniProt P08913); type: cell membranes, Sf9, Membrane; settings: sf9; note: in other assays of this panel Not Active means under 50% inhibition at 10 µM
T1 sequence (P08913 whole entry): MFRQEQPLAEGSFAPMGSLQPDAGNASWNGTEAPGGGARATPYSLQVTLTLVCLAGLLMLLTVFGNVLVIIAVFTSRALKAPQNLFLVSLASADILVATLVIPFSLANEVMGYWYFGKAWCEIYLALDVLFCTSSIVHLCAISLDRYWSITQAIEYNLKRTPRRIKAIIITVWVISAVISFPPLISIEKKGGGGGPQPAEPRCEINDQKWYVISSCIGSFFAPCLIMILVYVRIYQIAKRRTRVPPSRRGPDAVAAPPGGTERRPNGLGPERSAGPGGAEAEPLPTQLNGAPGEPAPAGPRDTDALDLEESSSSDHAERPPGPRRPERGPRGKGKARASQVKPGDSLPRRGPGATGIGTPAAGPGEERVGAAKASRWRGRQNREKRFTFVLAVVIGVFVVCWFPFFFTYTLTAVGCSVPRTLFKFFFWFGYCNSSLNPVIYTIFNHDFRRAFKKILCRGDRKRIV

[3] = DRUGMATRIX: Purinergic P2X radioligand binding (ligand: [3H] alpha, beta-Methylene-ATP); type: cell membranes, Oryctolagus cuniculus, New Zealand albino, Urinary bladder, Membrane; settings: Not Active = under 50% inhibition at 10 µM
[4] = biological target: Glycine receptor (Rattus norvegicus, UniProt P22771+P24524+P07727+P20781); type: cell membranes, Wistar, Spinal cord, Membrane; note: in other assays of this panel Not Active means under 50% inhibition at 10 µM
[5] = biological target: T2, Progesterone receptor (Bos taurus, UniProt Q690N0); experiment: DRUGMATRIX: Progesterone radioligand binding (ligand: [3H] R-5020); type: tissue-based, Uterus; settings: Not Active = under 50% inhibition at 10 µM
T2 sequence (Q690N0 whole entry): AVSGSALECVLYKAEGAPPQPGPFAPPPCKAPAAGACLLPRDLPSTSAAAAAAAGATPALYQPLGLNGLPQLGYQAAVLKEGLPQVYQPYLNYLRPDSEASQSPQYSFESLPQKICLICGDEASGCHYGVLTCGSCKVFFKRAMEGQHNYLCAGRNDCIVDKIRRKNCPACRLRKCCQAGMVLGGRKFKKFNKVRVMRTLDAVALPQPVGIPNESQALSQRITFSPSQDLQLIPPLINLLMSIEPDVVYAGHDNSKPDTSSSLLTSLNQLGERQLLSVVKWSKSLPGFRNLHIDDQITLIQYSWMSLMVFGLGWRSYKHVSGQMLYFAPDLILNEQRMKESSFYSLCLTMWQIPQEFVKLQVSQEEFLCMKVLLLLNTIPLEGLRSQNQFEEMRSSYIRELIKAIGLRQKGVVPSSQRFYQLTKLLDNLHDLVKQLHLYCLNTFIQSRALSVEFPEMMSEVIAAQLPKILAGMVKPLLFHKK

Chain of Tyrosine-protein kinase Lck (P06239 whole entry): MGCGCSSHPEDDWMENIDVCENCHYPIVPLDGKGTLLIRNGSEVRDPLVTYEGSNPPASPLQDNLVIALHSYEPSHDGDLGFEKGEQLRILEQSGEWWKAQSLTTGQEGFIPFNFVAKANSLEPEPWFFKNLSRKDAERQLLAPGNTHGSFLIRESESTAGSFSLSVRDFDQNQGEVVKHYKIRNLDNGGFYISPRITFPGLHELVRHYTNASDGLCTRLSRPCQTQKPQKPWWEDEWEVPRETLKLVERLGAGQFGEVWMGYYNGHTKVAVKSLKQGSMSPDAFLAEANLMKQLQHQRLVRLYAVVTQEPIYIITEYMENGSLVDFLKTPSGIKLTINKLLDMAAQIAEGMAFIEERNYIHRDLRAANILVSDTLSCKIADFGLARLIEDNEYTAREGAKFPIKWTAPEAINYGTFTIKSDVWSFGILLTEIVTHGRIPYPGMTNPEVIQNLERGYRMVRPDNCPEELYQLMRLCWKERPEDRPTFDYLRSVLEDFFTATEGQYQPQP

O=C(c1ccccc1C(F)(F)F)N1CCC(Cc2ccccc2)CC1
Not Active: IC50 [1] | IC50 [2] | IC50 [3] | Ki [3] | IC50 [4] | IC50 [5]

O=C/C=C/c1ccccc1
Not Active: IC50 [1] | IC50 [2] | IC50 [3] | Ki [3] | IC50 [4] | IC50 [5]

Nc1ccc2c3c(cccc13)C(=O)NC2=O
Not Active: IC50 [1] | IC50 [2] | IC50 [3] | Ki [3] | IC50 [4] | IC50 [5]

COc1ccc(C(=O)N2CCCC2=O)cc1
Not Active: IC50 [1] | IC50 [2] | IC50 [3] | Ki [3] | IC50 [4] | IC50 [5]

O=c1cnn([C@@H]2O[C@H](CO)[C@@H](O)[C@H]2O)c(=O)[nH]1 [6-AZAURIDINE]
Not Active: IC50 [1] | IC50 [2] | IC50 [3] | Ki [3] | IC50 [4] | IC50 [5]

CC[C@H](C)[C@H]1O[C@]2(C=C[C@@H]1C)C[C@@H]1C[C@@H](C/C=C(\C)[C@@H](O[C@H]3C[C@H](OC)[C@@H](O[C@H]4C[C@H](OC)[C@@H](O)[C@H](C)O4)[C@H](C)O3)[C@@H](C)/C=C/C=C3\CO[C@@H]4[C@H](O)C(C)=C[C@@H](C(=O)O1)[C@]34O)O2.CO[C@H]1C[C@H](O[C@H]2[C@H](C)O[C@@H](O[C@@H]3/C(C)=C/C[C@@H]4C[C@@H](C[C@]5(C=C[C@H](C)[C@@H](C(C)C)O5)O4)OC(=O)[C@@H]4C=C(C)[C@@H](O)[C@H]5OC/C(=C\C=C\[C@@H]3C)[C@]54O)C[C@@H]2OC)O[C@@H](C)[C@@H]1O [ABAMECTIN]
Not Active: IC50 [1] | IC50 [2] | IC50 [3] | Ki [3] | IC50 [5]

NCCCC(O)(P(=O)(O)O)P(=O)(O)O [ALENDRONIC ACID]
Not Active: IC50 [1] | IC50 [2] | IC50 [3] | Ki [3] | IC50 [4] | IC50 [5]

Cc1nnc2n1-c1ccc(Cl)cc1C(c1ccccc1)=NC2 [ALPRAZOLAM]
Not Active: IC50 [1] | IC50 [2] | IC50 [3] | Ki [3] | IC50 [4] | IC50 [5]

Cn1c(=O)c2[nH]cnc2n(C)c1=O.Cn1c(=O)c2[nH]cnc2n(C)c1=O.NCCN [AMINOPHYLLINE]
Not Active: IC50 [1] | IC50 [2] | IC50 [3] | Ki [3] | IC50 [4] | IC50 [5]

CCC1(CCC(C)C)C(=O)NC(=O)NC1=O [AMOBARBITAL]
Not Active: IC50 [1] | IC50 [2] | IC50 [3] | Ki [3] | IC50 [4] | IC50 [5]

Brc1c(NC2=NCCN2)ccc2nccnc12 [BRIMONIDINE]
Not Active: IC50 [1] | IC50 [3] | Ki [3] | IC50 [4] | IC50 [5]

COc1cc(N)c(Cl)cc1C(=O)NC1CCN(CCCOc2ccc(F)cc2)CC1OC (centres undefined) [CISAPRIDE]
Not Active: IC50 [1] | IC50 [3] | Ki [3] | IC50 [4] | IC50 [5]

N=C(N)NC(=O)Cc1c(Cl)cccc1Cl [GUANFACINE]
Not Active: IC50 [1] | IC50 [3] | Ki [3] | IC50 [4] | IC50 [5]

O=c1cc(N2CCOCC2)oc2c(-c3ccccc3)cccc12 [LY-294002]
Not Active: IC50 [2] | IC50 [3] | Ki [3] | IC50 [4] | IC50 [5]

CC(C)NCC(O)COc1cccc2[nH]ccc12 (centres undefined) [PINDOLOL]
Not Active: IC50 [1] | IC50 [2] | IC50 [3] | Ki [3] | IC50 [4]

COc1cc2nc(N3CCN(C(=O)c4ccco4)CC3)nc(N)c2cc1OC [PRAZOSIN]
Not Active: IC50 [1] | IC50 [3] | Ki [3] | IC50 [4] | IC50 [5]

— ChEMBL document CHEMBL1909046, “DrugMatrix in vitro pharmacology data”
